Common to all, as to test: NCI tumour cell line growth inhibition, 48 h
Assay [1] concerns COLO 205.
Assay [2] deals with SF-295.
Assay [3] has as its system OVCAR-3.
The subject of assay [4] is SK-MEL-2.
Assay [5] concerns Malme-3M.
Assay [6] has as its system SN12C.
The test system of assay [7] is 786-0.
Assay [8] has as its system SW-620.
Assay [9] concerns SK-OV-3.
In assay [10] the test system is OVCAR-8.
The test system of assay [11] is OVCAR-4.
Assay [12] concerns NCI-H23.
Assay [13] deals with HL-60.
Assay [14] relates to HOP-92.
Assay [15] deals with KM12.
For assay [16], the system named is A498.
For assay [17], the system named is TK-10.
Assay [18] relates to UO-31.
In assay [19] the test system is UACC-257.
Assay [20] concerns EKVX.

We go through ten compounds from ChEMBL document CHEMBL1201862, “PubChem BioAssay data set” (2004).

“And” between values parts separate entries of the source, which are not always exact repeats. Equal entries are not always repeated. Structures can show the parent of a compound that is named as a salt.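 In this assay, cells in 96-well plates receive the compound at five concentrations for 48 hours. Endpoints are linearly interpolated between the surrounding concentrations. GI50 marks 50% less growth.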 The source made the active and inactive calls. Cut-off read from the data, not from the text of the source: active = GI50 up to about 1.1 µM and inactive = higher.

Consider `NC1=NS(=O)(=O)Nc2nc(-c3cccs3)[nH]c21`, for which the GI50 in assay [1], in assay [2], in [3], in assay [4], in assay [5] and in assay [6] was > 100 µM (inactive) each time. Further, the GI50 in assay [7], in [8], in [9], in [10], in assay [11] and in assay [12] was > 100 µM (inactive) in each case. The GI50 in assay [13], in [14], in assay [15], in [16], in assay [17] and in assay [18] was > 100 µM (inactive) each time.

Regarding `COCn1c(C)c(C)c2c(=O)oc(N(C)C)nc21`, the GI50 in assay [1], in assay [2], in assay [4], in [5], in assay [6] and in [7] was > 100 µM (inactive) throughout. The GI50 in assay [8], in assay [9], in [19], in assay [10], in [11] and in [12] was > 100 µM (inactive) in each case. Also, the GI50 was > 100 µM (inactive) in assay [20]; > 100 µM (inactive) in assay [13]; > 100 µM (inactive) in assay [14]; > 100 µM (inactive) in [15]; 39 µM (inactive) in assay [16]; > 100 µM (inactive) in [17]. Besides, the GI50 in assay [18] is 9.82 µM (inactive).

Consider `Cc1c(C(=O)/C=C/c2ccccc2[N+](=O)[O-])[n+]([O-])c2ccccc2[n+]1[O-]`, for which the GI50 in [1] is 3.13 µM (inactive); in assay [2], 7.5 µM (inactive); in [3] it was 3.76 µM (inactive); in [4], 11.3 µM (inactive); in assay [5] it was 13.3 µM (inactive); in assay [6] it was 6 µM (inactive). Besides, the GI50 was 5.53 µM (inactive) in [7]; 5.13 µM (inactive) in assay [8]; 17.9 µM (inactive) in assay [9]; 7.53 µM (inactive) in assay [19]; 3.9 µM (inactive) in [10]; 9.64 µM (inactive) in [11]. Moreover, the GI50 in assay [12] is 4.63 µM (inactive); in assay [20], 14.4 µM (inactive); in [13] it was 1.58 µM (inactive); in assay [14] it was 13.6 µM (inactive); in [15] it was 10.3 µM (inactive); in [16], 13.3 µM (inactive). Besides, in [18], the GI50 was 18.8 µM (inactive).

`CCOc1cc2c(cc1O)/C(=N\OC)C[C@@H]1[C@@H]2CC[C@]2(C)[C@@H](O)CC[C@@H]12`: the GI50 was 16.3 µM (inactive) in assay [1]; < 0.0205 µM (active) in [3]; < 0.0358 µM (active) in [4]; 0.129 µM (active) in assay [5]; 0.372 µM (active) in [6]; < 0.0403 µM (active) in assay [7]. Besides, the GI50 is 0.212 µM (active) in assay [8]; 0.243 µM (active) in assay [9]; 0.217 µM (active) in [10]; 10.7 µM (inactive) in assay [11]; 0.324 µM (active) in [12]; 10.8 µM (inactive) in assay [20]. The GI50 was 0.00548 µM (active) in assay [13]; 7.64 µM (inactive) in assay [14]; 0.423 µM (active) in assay [15]; 0.0908 µM (active) in assay [16]; > 32.9 µM (inactive) in assay [17]; 0.875 µM (active) in assay [18].

With `CCOC(=O)/C=C1\Nc2ccccc2C(c2ccccc2)=NC1OC(C)=O` (configuration not stated), the GI50 in [1], in [2], in assay [3], in [4], in [5] and in assay [6] was > 100 µM (inactive) throughout. In addition, the GI50 in assay [7], in assay [8], in assay [9], in assay [19], in [10] and in [11] was > 100 µM (inactive) throughout. Moreover, the GI50 in assay [12] is > 100 µM (inactive); in assay [20], > 100 µM (inactive); in [13], 81.5 µM (inactive); in [14], 32.1 µM (inactive); in [15], > 100 µM (inactive); in assay [16] it was > 100 µM (inactive). In assay [18], the GI50 was 44 µM (inactive).

Take `Oc1ccc(C2Oc3cc(O)cc4c3C2c2cc(O)cc3c2C(c2cc(O)cc5c2C4C(c2ccc(O)cc2)O5)C(c2ccc(O)cc2)O3)cc1` (configuration not stated): the GI50 in assay [1] was > 25 µM (inactive); in assay [3], 7 µM (inactive); in assay [4] it was 5.51 µM (inactive); in assay [5], 5.7 µM (inactive); in assay [6], 8.05 µM (inactive); in [7], 14.2 µM (inactive). Also, the GI50 in [8] was 7.73 µM (inactive); in [19], 10.5 µM (inactive); in assay [10], 6.61 µM (inactive); in [11] it was 4.4 µM (inactive); in [12], 6.11 µM (inactive); in assay [20], > 25 µM (inactive). Moreover, the GI50 was 0.834 µM (active) in [13]; 3.94 µM (inactive) in [14]; 7.4 µM (inactive) in [15]; > 25 µM (inactive) in [16]; > 25 µM (inactive) in assay [17]; 8.24 µM (inactive) in assay [18].

Turning to `O=C(N/C(=C\c1cc(Cl)ccc1Cl)c1nc2c(O)nc(S)nc2[nH]1)c1ccccc1`, the GI50 in assay [1] was 37.4 µM (inactive); in assay [2], 37.4 µM (inactive); in assay [3], 43.5 µM (inactive); in assay [4], 46.1 µM (inactive); in [5] it was > 90.2 µM (inactive); in [6], 30.1 µM (inactive). Also, the GI50 was 17.5 µM (inactive) in [7]; 13.7 µM (inactive) in [8]; 98.2 µM (inactive) in assay [9]; 25.7 µM (inactive) in assay [10]; 39.9 µM (inactive) in assay [11]; 25.8 µM (inactive) in assay [12]. Besides, the GI50 was 37.8 µM (inactive) in assay [20]; 4.82 µM (inactive) in [13]; > 44.6 µM (inactive) in [14]; 23.4 µM (inactive) in assay [15]; > 100 µM (inactive) in assay [16]; > 75.3 µM (inactive) in assay [17]. Also, the GI50 in assay [18] was 23.6 µM (inactive).

Regarding `Cc1cc(Cl)ccc1NC(=O)CC1SC(NC(=O)c2ccccc2Cl)=NC1=O` (configuration not stated), the GI50 was > 100 µM (inactive) in assay [2]; 17.5 µM (inactive) in assay [3]; 26.7 µM (inactive) in [4]; 19.7 µM (inactive) in assay [5]; 17.7 µM (inactive) in [6]; 19 µM (inactive) in [7]. Besides, the GI50 is 18 µM (inactive) in [8]; 16.3 µM (inactive) in [19]; > 100 µM (inactive) in assay [10]; 20.9 µM (inactive) in assay [11]; 50.2 µM (inactive) in assay [12]; > 100 µM (inactive) in assay [20]. Also, the GI50 in assay [13] was 2.19 µM (inactive); in [14], 18.8 µM (inactive); in assay [16] it was > 100 µM (inactive); in [17] it was > 10 µM (inactive); in assay [18] it was 21.6 µM (inactive).

Take `CN(C)CCCN1c2ccccc2Sc2ccc(C(F)(F)F)cc21` [TRIFLUPROMAZINE HYDROCHLORIDE]: the GI50 is 16.3 µM (inactive) and 16.7 µM (inactive) in [1]; 15.3 µM (inactive) and 16.8 µM (inactive) in assay [2]; 16 µM (inactive) in assay [4]; 16.4 µM (inactive) and 14.9 µM (inactive) in [5]; 16 µM (inactive) and 17.3 µM (inactive) in [6]; 14.7 µM (inactive) and 14.1 µM (inactive) in [7]. For the same compound, the GI50 in [8] is 15.8 µM (inactive) and 17.2 µM (inactive); in assay [9] it was 18.6 µM (inactive) and 16.6 µM (inactive); in assay [19], 13.5 µM (inactive) and 15.3 µM (inactive); in [10], 15.6 µM (inactive); in [11], 14.8 µM (inactive); in assay [12] it was 18.3 µM (inactive) and 16.5 µM (inactive). In addition, the GI50 in assay [20] was 17.6 µM (inactive) and 15.7 µM (inactive); in assay [13], 15.7 µM (inactive) and 12.7 µM (inactive); in assay [14], 12.3 µM (inactive); in [15], 17.2 µM (inactive) and 15.1 µM (inactive); in assay [16], 16.6 µM (inactive); in [17] it was 17.4 µM (inactive) and 15.2 µM (inactive). Moreover, the GI50 in [18] was 15.5 µM (inactive) and 14.3 µM (inactive).

Turning to `CCOP(=O)(OCC)C(N)c1ccc(Cl)cc1` (configuration not stated), the GI50 in assay [1], in assay [4], in assay [5], in [6], in assay [7] and in assay [8] was > 100 µM (inactive) each time. Further, the GI50 in [19], in assay [10], in assay [11], in assay [12], in assay [20] and in assay [13] was > 100 µM (inactive) each time. Moreover, the GI50 in [14], in [15], in assay [16] and in [17] was > 100 µM (inactive) each time.
